The nature of data set [1]: stability towards oxidation and discoloration on storage exposed to air. As to conditions: storage period of 30 days at room temperature, in contrast to other acid addition salts, e.g. maleate and gluconate.
Description: HPLC can be performed after preparation of the salts and repeated after 14 days of storage at room temperature under normal air containing about 21% oxygen.
HPLC analysis can be performed after isolation and drying of flupirtine sulfonate salts and repeated after 14 days of storage at room temperature under open air.
Discolouration can be measured using optical comparison with a standard: the RAL scale of colours (see list). The colour changes during the experiment is compared to this standard list and the appropriate value is noted. The intensity is increasing on a scale ranging from 1 to 10. A higher number means more discolouration. The increase in colour intensity is not proportional but qualitative.
The nature of another data set: dissolution rate. The format is physicochemical.
The conditions of data set [2]: cited from earlier work.

Counter-ions that a name gives are not always drawn.

As for `CC(=O)O.CCOC(=O)Nc1ccc(NCc2ccc(F)cc2)nc1N` [flupirtine acetate, 2-amino-3-carbethoxyamino-6-(4-fluoro-benzylamino)-pyridine acetate], the “stability towards oxidation and towards discoloration” value in data set [1] was “substantially improved stability”.

In the case of `CCOC(=O)Nc1ccc(NCc2ccc(F)cc2)nc1N` [flupirtine maleate], the dissolution rate in the data set “dissolution rate” is 0.088 [μg/mL]/min. In addition, in data set [2], the solubility in water entry is “insoluble”. For the compound `CCOC(=O)Nc1ccc(NCc2ccc(F)cc2)nc1N.CS(=O)(=O)O` [flupirtine mesylate, 2-amino-3-carbethoxyamino-6-(4-fluoro-benzylamino)-pyridine mesylate], in data set [1], the “stability towards oxidation and towards discoloration” value was “substantially improved stability”.

Turning to `CCC(=O)O.CCOC(=O)Nc1ccc(NCc2ccc(F)cc2)nc1N` [flupirtine propionate, 2-amino-3-carbethoxyamino-6-(4-fluoro-benzylamino)-pyridine propionate], in data set [1], the “stability towards oxidation and towards discoloration” value was “substantially improved stability”.

The values are drawn from US20120028930A1, “FLUPIRTINE SALTS AND POLYMORPHS” (Bionevia Pharmaceuticals Inc., priority 2010, published 2012).
